One experiment deals with T1, MEK1 activated ERK1 (Homo sapiens, UniProt P27361).
T1 construct: purchased Millipore (Billerica, Mass.) 14-439-K
Description: Omnia continuous-read kinase assay for potency against MEK1 activated ERK1. The experiment is classed as biochemical. The following applies: MEK1 activated ERK1, ATP at KM; read-out: ERK1 Omnia WT ATP KM IC50. The method, boiled down:
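Apparent IC50 came from initial reaction slopes (RFU vs time) plotted against log inhibitor with a variable-slope fit. Reactions were started with ERK1 (4 nM final) added to 50 μM ATP, roughly at its appKM, and 10 μM Sox-conjugated ST17 peptide in 20 mM Tris pH 7.5, 5 mM MgCl2. Fluorescence was monitored every 71 seconds.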

Experiment [1] relates to HT-29 cells (colorectal adenocarcinoma). The experiment can be described thus: Inhibition of cancer cell proliferation, HT-29 (CellTiterGlo, 72 hours). The note with it: Homo sapiens. The experiment is classed as cell-based. In outline: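 Proliferation over 72 h at 37° C was read by CellTiterGlo luminescence, translated to cell counts with a cell-density standard curve (390–50,000 cells). Compound added as 3-fold dilutions from a 5,000 nM two-fold stock to 3000 seeded HT-29 cells; GI50 from percent inhibition relative to untreated wells.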

For the next experiment, the system named is ERK1/ERK2. Description: Measurement of Erk occupancy with biotinylated covalent probe I-299 (HT-29). It counts as cell-based. The note with it: HT-29 cells. As to the method: Measurement of Erk Occupancy with Biotinylated Covalent Probe
This experiment measured occupancy of the ERK1/ERK2 target by compounds according to the invention. This experiment was conducted using the Mesoscale Discovery test kit (Cat. # N45107B). One day before the assay, cells were split and added at 50,000 cells per well to a flat-bottom 96 well plate in 200 μl of growth medium. The next day, the medium was discarded, 100 μl medium containing test compound was added, and the plate was incubated at 37° C. for 120 minutes. The plate was rinsed once with PBS, and 50 μl lysis buffer with test compound was added. The plate was incubated at 4° C. for 30 min, and 30 μl of lysate was transferred to a plate to capture total and phosphor-Erk. Biotinylated probe 1-299 was diluted in lysis buffer and added to each well to a final concentration of 0.2 μM. The plate was incubated for 2 hr under constant shaking at room temperature. The plate was washed 3 times with MSD wash buffer. To detect the biotinylated probe bonding, tagged streptavidin was added (Mesoscale Discovery, Cat. # R32AD-1) at 1 μg/ml, 25 μl/well, followed by a 60 min incubation under shaking. The plate was washed 3 times, 150 μl MSD Read Buffer (Mesoscale Discovery, Cat. R61TX) was added and the plate was read in a plate reader manufactured by MSD. Percent occupancy by test compound at Erk was calculated by comparing the chemiluminescence readings from treated cells as compared to the chemiluminescence readings in untreated controls (which are defined as 100% probe bonding or 0% test compound occupancy). The amount of covalent probe signal divided by the amount of ERK signal for samples with no test compound treatment represents the maximum probe signal (MPS). In samples treated with test compound prior to covalent probe, the ratio of probe signal to ERK signal (the test probe signal, TPS) was reduced by the degree of target occupancy by the test compound which blocks covalent probe binding. The difference between the MPS and the TPS, divided by the MPS gave the target occupancy by the test compound. This ratio was then expressed as a percent occupancy. Results from this assay are provided in Table A below under the column “Occupancy EC50 (nM) HT-29.”

pEC50, pIC50: −log10 of the molar value.

T1 sequence (P27361 whole entry): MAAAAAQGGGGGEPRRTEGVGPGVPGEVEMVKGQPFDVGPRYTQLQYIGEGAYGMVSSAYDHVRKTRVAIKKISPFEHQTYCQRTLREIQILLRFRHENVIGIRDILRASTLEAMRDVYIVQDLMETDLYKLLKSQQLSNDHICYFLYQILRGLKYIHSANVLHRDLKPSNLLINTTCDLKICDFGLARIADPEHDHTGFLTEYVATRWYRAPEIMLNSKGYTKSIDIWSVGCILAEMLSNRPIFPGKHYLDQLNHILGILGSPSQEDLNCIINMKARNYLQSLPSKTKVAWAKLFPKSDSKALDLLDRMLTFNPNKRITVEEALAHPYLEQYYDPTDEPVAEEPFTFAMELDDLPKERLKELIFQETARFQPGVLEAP

As to `C=CC(=O)Nc1cc(C)ccc1Nc1nc(Nc2cc(OC)nc(N3CCN(CC)CC3)c2)ncc1C(F)(F)F` [Compound I-89, N-(2-((2-((2-(4-Ethylpiperazin-1-yl)-6-methoxypyridin-4-yl)amino)-5-(trifluoromethyl)pyrimidin-4-yl)amino)-5-methylphenyl)acrylamide], at MEK1 activated ERK1, the pIC50 was 6.30 to 7.00. The compound further registered a GI50 in experiment [1] of less than 100 nM.

In the case of `C=CC(=O)Nc1ccccc1Nc1nc(N[C@H]2CCN(C(C)=O)C2)ncc1C(F)(F)F` [Compound I-56, (S)—N-(2-((2-((1-Acetylpyrrolidin-3-yl)amino)-5-(trifluoromethyl)pyrimidin-4-yl)amino)phenyl)acrylamide], the negative logarithm of the IC50 (pIC50) on MEK1 activated ERK1 is 6.30 to 7.00. Further, the GI50 in experiment [1] lay within 101 to 500 nM.

As to `C=CC(=O)Nc1ccccc1Nc1nc(Nc2cc(OC)nc(N3CCCCC3)c2)ncc1C(F)(F)F` [Compound I-282, N-(2-((2-((2-Methoxy-6-(piperidin-1-yl)pyridin-4-yl)amino)-5-(trifluoromethyl)pyrimidin-4-yl)amino)phenyl)acrylamide], the pIC50 on MEK1 activated ERK1 is 6.30 to 7.00. This compound also had a GI50 in experiment [1] of less than 100 nM.

In the case of `C=CC(=O)Nc1ccccc1Nc1nc(Nc2cc(C(N)=O)ccc2C)ncc1C(F)(F)F` [Compound I-68, 3-(4-(2-Acrylamidophenylamino)-5-(trifluoromethyl)pyrimidin-2-ylamino)-4-methylbenzamide], the pEC50 in the experiment on ERK1/ERK2 was greater than 7.00. Besides, the GI50 in experiment [1] is less than 100 nM.

Turning to `C=CS(=O)(=O)Nc1cc(C)ccc1Nc1nc(Nc2cc(OC)ncc2C)ncc1C(F)(F)F` [Compound I-333, N-(2-((2-((2-methoxy-5-methylpyridin-4-yl)amino)-5-(trifluoromethyl)pyrimidin-4-yl)amino)-5-methylphenyl)ethenesulfonamide], the negative-log IC50 (pIC50) at MEK1 activated ERK1 is 6.30 to 7.00. For the same compound, the GI50 in experiment [1] was greater than 1000 nM.

Consider `C=CC(=O)Nc1ccccc1Nc1nc(Nc2cc(OC)ccc2C)ncc1C(F)(F)F` [Compound I-340, N-(2-((2-((5-methoxy-2-methylphenyl)amino)-5-(trifluoromethyl)pyrimidin-4-yl)amino)phenyl)acrylamide], for which the pIC50 on MEK1 activated ERK1 was 6.30 to 7.00. The compound further returned a GI50 in experiment [1] of 101 to 500 nM.

As to `C=CC(=O)Nc1ccccc1Nc1nc(N[C@@H]2CCN(C(C)=O)C2)ncc1C(F)(F)F` [Compound I-60, (R)—N-(2-((2-((1-Acetylpyrrolidin-3-yl)amino)-5-(trifluoromethyl)pyrimidin-4-yl)amino)phenyl)acrylamide], the negative-log IC50 (pIC50) at MEK1 activated ERK1 is 6.00 to 6.30. Further, the GI50 in experiment [1] was 101 to 500 nM.

As to `C=CC(=O)Nc1cc(C)ccc1Nc1nc(Nc2cc(OC)nc(N(C)CCOC)c2)ncc1C(F)(F)F` [Compound I-336, N-(2-((2-((2-methoxy-6-((2-methoxyethyl)(methyl)amino)pyridin-4-yl)amino)-5-(trifluoromethyl)pyrimidin-4-yl)amino)-5-methylphenyl)acrylamide], the negative logarithm of the IC50 (pIC50) on MEK1 activated ERK1 is 6.00 to 6.30. Further, the GI50 in experiment [1] is less than 100 nM.

With `C=CC(=O)Nc1cc(C)ccc1Nc1nc(Nc2cc(NC3CC3)nc(OC)c2)ncc1C(F)(F)F` [Compound I-337, N-(2-((2-((2-(cyclopropylamino)-6-methoxypyridin-4-yl)amino)-5-(trifluoromethyl)pyrimidin-4-yl)amino)-5-methylphenyl)acrylamide], at MEK1 activated ERK1, the pIC50 was 6.00 to 6.30. Further, in experiment [1], the GI50 was less than 100 nM.

Consider `C=CC(=O)Nc1cc(C)ccc1Nc1nc(Nc2cc(OC)nc(N(C)C3CC3)c2)ncc1C(F)(F)F` [Compound I-342, N-(2-((2-((2-(cyclopropyl(methyl)amino)-6-methoxypyridin-4-yl)amino)-5-(trifluoromethyl)pyrimidin-4-yl)amino)-5-methylphenyl)acrylamide], for which the pIC50 at MEK1 activated ERK1 is 6.00 to 6.30. The compound further returned a GI50 in experiment [1] of less than 100 nM.

As for `C=CC(=O)Nc1cc(C(F)(F)F)ccc1Nc1nc(Nc2cc(OC)ncc2C)ncc1C(F)(F)F` [Compound I-323, N-(2-((2-((2-methoxy-5-methylpyridin-4-yl)amino)-5-(trifluoromethyl)pyrimidin-4-yl)amino)-5-(trifluoromethyl)phenyl)acrylamide], at MEK1 activated ERK1, the pIC50 is 6.30 to 7.00. The GI50 in experiment [1] fell in the range of 101 to 500 nM.

`C=CC(=O)Nc1ccccc1Nc1nc(Nc2ccnnc2)ncc1C(F)(F)F` [Compound I-293, N-(2-((2-(Pyridazin-4-ylamino)-5-(trifluoromethyl)pyrimidin-4-yl)amino)phenyl)acrylamide]: the pIC50 on MEK1 activated ERK1 is 6.30 to 7.00. The compound also showed a 50% growth inhibitory concentration (GI50) in experiment [1] of less than 100 nM.

For `C=CC(=O)Nc1ccccc1Nc1nc(Nc2cc(Cl)nc(OC)c2)ncc1Cl` [Compound I-246, N-(2-((5-chloro-2-((2-chloro-6-methoxypyridin-4-yl)amino)pyrimidin-4-yl)amino)phenyl)acrylamide], the pIC50 on MEK1 activated ERK1 was 6.30 to 7.00. In experiment [1], this compound displayed a GI50 of less than 100 nM.

Regarding `C=CC(=O)Nc1ccccc1Nc1nc(N[C@H]2CCCN(C(C)=O)C2)ncc1Cl` [Compound I-115, (S)—N-(2-((2-((1-acetylpiperidin-3-yl)amino)-5-chloropyrimidin-4-yl)amino)phenyl)acrylamide], the pIC50 at MEK1 activated ERK1 was greater than 7.00. Besides, the GI50 in experiment [1] is less than 100 nM.

As to `C=CC(=O)Nc1cc(C)ccc1Nc1nc(Nc2cc(OC)nc(N3CCN(C)CC3)c2)ncc1C(F)(F)F` [Compound I-325, N-(2-((2-((2-methoxy-6-(4-methylpiperazin-1-yl)pyridin-4-yl)amino)-5-(trifluoromethyl)pyrimidin-4-yl)amino)-5-methylphenyl)acrylamide], on MEK1 activated ERK1, the pIC50 is 6.30 to 7.00. The compound also yielded a GI50 in experiment [1] of less than 100 nM.

Turning to `C=CC(=O)Nc1cc(C)ccc1Nc1nc(Nc2cc(C(N)=O)ccn2)ncc1Cl` [Compound I-238, 2-((4-((2-acrylamido-4-methylphenyl)amino)-5-chloropyrimidin-2-yl)amino)isonicotinamide], the negative-log IC50 (pIC50) at MEK1 activated ERK1 was 6.30 to 7.00. Moreover, in experiment [1], the GI50 was in the range of 101 to 500 nM.

With `C=CC(=O)Nc1ccccc1Nc1nc(N[C@H]2CCN(C(=O)OC)C2)ncc1C(F)(F)F` [Compound I-59, (S)-methyl 3-((4-((2-Acrylamidophenyl)amino)-5-(trifluoromethyl)pyrimidin-2-yl)amino)pyrrolidine-1-carboxylate], the pIC50 on MEK1 activated ERK1 is 6.00 to 6.30. In experiment [1], this compound showed a GI50 of 101 to 500 nM.

Turning to `C=CC(=O)Nc1cc(OC)ccc1Nc1nc(Nc2cc(Cl)nc(OC)c2)ncc1Cl` [Compound I-245, N-(2-((5-chloro-2-((2-chloro-6-methoxypyridin-4-yl)amino)pyrimidin-4-yl)amino)-5-methoxyphenyl)acrylamide], on MEK1 activated ERK1, the pIC50 is 6.30 to 7.00. Moreover, in experiment [1], the GI50 fell in the range of 101 to 500 nM.
